Laboratory results published in paper PMC7558102, “Hybrid Multimodal Imaging Synthons for Chemoselective and Efficient Biomolecule Modification with Chelator and Near-Infrared Fluorescent Cyanine Dye” (Pharmaceuticals, 2020).
Like-named read-outs stand apart in the source and are kept apart here.

How the values were obtained:
[1] = logD of the unconjugated NIR cyanine dyes 1–3; format: physicochemical; details: 1-octanol/water; unconjugated dye
[2] = photophysical properties (absorbance and emission measurements); format: physicochemical; details: for log ε: at λmax(abs); for λmax(em): excitation wavelength λex = 650 nm
Protocol: Finally, the photophysical properties were determined for dyes, MIS and their conjugates. It could be shown that the photophysical properties remained largely unaltered, including absorption coefficients and emission characteristics (Table 1). […] The only change in photophysical properties we qualitatively observed was an increase in the quantum yields of the dye conjugates compared to their unconjugated leads 1–3, an effect that was described before and can be attributed to the conjugation of sterically demanding groups (such as the PESIN homodimers used here), resulting in a decrease in aggregation of the dye molecules and thus a reduced fluorescence quenching. γ-Counting was performed using a 2480 Wizard gamma counter system from Perkin Elmer. A Cary 100 Bio system (Varian) was used to record the UV/Vis-Spectra together with 4 mL PMMA cuvettes from Sigma-Aldrich. Furthermore, for absorbance and emission measurements, a Tecan Infinite M200 Microplate reader together with a Nunc Micro-Well 96 solid plate from ThermoFisher was used.

[3] = format: physicochemical; details: pH 7.4
Protocol: (§1) The mixtures were vigorously shaken for 5 min on a vibrating plate. After subsequent centrifugation at 13,000 rpm for 5 min, 125 µL was taken from each phase and measured in a γ-counter. The logD values were calculated from three or four independent experiments, each performed in triplicate. For 18, the logD was determined by semipreparative HPLC. For this purpose, a solution of 18 (10 µL, c = 5 × 10^−4 mol/L) in water was added to a mixture of 1 mL 1-octanol and 990 µL phosphate buffered solution (0.05 M, pH 7.4) and vigorously shaken for 5 min. After centrifugation, the phases were separated and both phases were analyzed by semipreparative HPLC and the peaks of the UV signals at 214 nm were integrated. The logD was determined by three separate measurements, each experiment performed in triplicate.

[4] = water/1-octanol partition coefficients (logD) of 68Ga-labeled compounds, γ-counting; format: physicochemical; details: pH 7.4
Protocol: as §1

logD [1] | Stokes Shift [2] [nm] | λmax(abs) [2] [nm] | log ε [2] [M^−1 cm^−1] | λmax(em) [2] [nm] | logD [3] | SMILES | logD [4]
-1.03 ± 0.11 | 11 | 804 | 5.00 | 815 |  | CC1(C)C(/C=C/C2=C(c3ccc(C(=O)O)cc3)C(=C/C=C3/N(CCCCS(=O)(=O)[O-])c4ccc5ccccc5c4C3(C)C)/CCC2)=[N+](CCCCS(=O)(=O)O)c2ccc3ccccc3c21 [Compound 1] | 
-4 ± 0.11 | 20 | 761 | 5.44 | 781 |  | CC1(C)C(/C=C/C2=C(c3ccccc3)C(=C/C=C3/N(CCCCS(=O)(=O)[O-])c4ccc(S(=O)(=O)O)cc4C3(C)C)/CCC2)=[N+](CCCCS(=O)(=O)O)c2ccc(C(=O)O)cc21 [Compound 2] | 
-3.95 ± 0.15 | 19 | 756 | 5.32 | 775 |  | CC1(C)C(/C=C/C2=C(c3ccc(CCC(=O)O)cc3)C(=C/C=C3/N(CCCCS(=O)(=O)[O-])c4ccc(S(=O)(=O)O)cc4C3(C)C)/CCC2)=[N+](CCCCS(=O)(=O)O)c2ccc(S(=O)(=O)O)cc21 [Compound 3] | 
 |  |  |  |  | -0.99 ± 0.03 | CSCC[C@H](NC(=O)[C@H](CC(C)C)NC(=O)[C@H](Cc1c[nH]cn1)NC(=O)CNC(=O)[C@@H](NC(=O)[C@H](C)NC(=O)[C@H](Cc1c[nH]c2ccccc12)NC(=O)[C@H](CCC(N)=O)NC(=O)CCOCCOCCOCCOCCNC(=O)CON=Cc1ccc(C(=O)NCCCN(CCCNC(=O)c2ccc(C=NOCC(=O)NCCOCCOCCOCCOCCC(=O)N[C@@H](CCC(N)=O)C(=O)N[C@@H](Cc3c[nH]c4ccccc34)C(=O)N[C@@H](C)C(=O)N[C@H](C(=O)NCC(=O)N[C@@H](Cc3c[nH]cn3)C(=O)N[C@@H](CC(C)C)C(=O)N[C@@H](CCSC)C(N)=O)C(C)C)cc2)CC(=O)N[C@H](CSC2CC(=O)N(CCN3C(=O)CC(SC)C3=O)C2=O)C(=O)NCCOCCOCC(N)=O)cc1)C(C)C)C(N)=O (stereo partly drawn) [Compound 18] | 
 |  |  |  |  |  | CSCC[C@H](NC(=O)[C@H](CC(C)C)NC(=O)[C@H](Cc1c[nH]cn1)NC(=O)CNC(=O)[C@@H](NC(=O)[C@H](C)NC(=O)[C@H](Cc1c[nH]c2ccccc12)NC(=O)[C@H](CCC(N)=O)NC(=O)CCOCCOCCOCCOCCNC(=O)CON=Cc1ccc(C(=O)NCCCN(CCCNC(=O)c2ccc(C=NOCC(=O)NCCOCCOCCOCCOCCC(=O)N[C@@H](CCC(N)=O)C(=O)N[C@@H](Cc3c[nH]c4ccccc34)C(=O)N[C@@H](C)C(=O)N[C@H](C(=O)NCC(=O)N[C@@H](Cc3c[nH]cn3)C(=O)N[C@@H](CC(C)C)C(=O)N[C@@H](CCSC)C(N)=O)C(C)C)cc2)CC(=O)N[C@H](CSC2CC(=O)N(CCN3C(=O)CC(SC[C@H](NC(=O)[C@H](CCCCNC(=O)CCc4ccc(C5=C(C=CC6=[N+](CCCCS(=O)(=O)[O-])c7ccc(S(=O)(=O)O)cc7C6(C)C)CCCC5=CC=C5N(CCCCS(=O)(=O)O)c6ccc(S(=O)(=O)O)cc6C5(C)C)cc4)NC(=O)CC[C@H](C(=O)O)N4CCN(CC(=O)O)CCN(CC(=O)O)CC4)C(N)=O)C3=O)C2=O)C(=O)NCCOCCOCC(N)=O)cc1)C(C)C)C(N)=O (stereo partly drawn) [[68Ga]Ga-16, metal not drawn] | -2.55 ± 0.13
 |  |  |  |  |  | CSCC[C@H](NC(=O)[C@H](CC(C)C)NC(=O)[C@H](Cc1c[nH]cn1)NC(=O)CNC(=O)[C@@H](NC(=O)[C@H](C)NC(=O)[C@H](Cc1c[nH]c2ccccc12)NC(=O)[C@H](CCC(N)=O)NC(=O)CCOCCOCCOCCOCCNC(=O)CON=Cc1ccc(C(=O)NCCCN(CCCNC(=O)c2ccc(C=NOCC(=O)NCCOCCOCCOCCOCCC(=O)N[C@@H](CCC(N)=O)C(=O)N[C@@H](Cc3c[nH]c4ccccc34)C(=O)N[C@@H](C)C(=O)N[C@H](C(=O)NCC(=O)N[C@@H](Cc3c[nH]cn3)C(=O)N[C@@H](CC(C)C)C(=O)N[C@@H](CCSC)C(N)=O)C(C)C)cc2)CC(=O)N[C@H](CSC2CC(=O)N(CCN3C(=O)CC(SC[C@H](NC(=O)CNC(=O)CC[C@H](C(=O)O)N4CCN(CC(=O)O)CCN(CC(=O)O)CC4)C(N)=O)C3=O)C2=O)C(=O)NCCOCCOCC(N)=O)cc1)C(C)C)C(N)=O (stereo partly drawn) [[68Ga]Ga-17, metal not drawn] | -2.38 ± 0.03
